Measurements published in ChEMBL document CHEMBL4428086, “Quassinoids: Viral protein R inhibitors from Picrasma javanica bark collected in Myanmar for HIV infection” (Bioorg Med Chem Lett, 2016).

What was measured:
Type in all cases: cell-based
[1] = system: Human immunodeficiency virus 1; assay: Inhibition of c-myc and His6-tagged full length HIV1 NL4-3 Vpr transfected in human TREx-HeLa cells assessed as cell proliferation at 1.25 uM after 48 hrs in presence of tetracycline by WST-8 assay (reference value: 100 +/- 1%); set-up: scale not given: the % may be the effect or the level left
[2] = system: Human immunodeficiency virus 1; assay: Inhibition of c-myc and His6-tagged full length HIV1 NL4-3 Vpr transfected in human TREx-HeLa cells assessed as cell proliferation at 2.5 uM after 48 hrs in presence of tetracycline by WST-8 assay (reference value: 100 +/- 1%); set-up: scale not given: the % may be the effect or the level left
[3] = system: Human immunodeficiency virus 1; assay: Inhibition of c-myc and His6-tagged full length HIV1 NL4-3 Vpr transfected in human TREx-HeLa cells assessed as cell proliferation at 5 uM after 48 hrs in presence of tetracycline by WST-8 assay (reference value: 100 +/- 1%); set-up: scale not given: the % may be the effect or the level left
[4] = system: HeLa; assay: Cytotoxicity against human TREx-HeLa cells assessed as cell viability at 2.5 uM after 48 hrs by WST-8 assay
[5] = system: Human immunodeficiency virus 1; assay: Inhibition of c-myc and His6-tagged full length HIV1 NL4-3 Vpr transfected in human TREx-HeLa cells assessed as cell proliferation at 1.25 uM after 48 hrs in presence of tetracycline by WST-8 assay

SMILES | Activity [1] [%] | Activity [2] [%] | Activity [3] [%] | Activity [4] | inhibition [5]
COC1=C[C@@H](O)[C@@H]2C[C@H]3OC(=O)C[C@H]4C(C)=C(OC)C(=O)[C@H]([C@@]2(C)C1=O)[C@@]34C | 140 | 138 | 141 | Non-Toxic | –
COC1=C(C)[C@@H]2CC(=O)O[C@@H]3C[C@H]4CC[C@H](OC)C(=O)[C@]4(C)[C@@H](C1=O)[C@@]32C | 165 | 168 | 173 | Non-Toxic | –
COC1=CC[C@@H]2C[C@H]3OC(=O)C[C@H]4C(CO)=C(OC)C(=O)[C@H]([C@@]2(C)C1=O)[C@@]34C | 148 | 147 | 150 | Non-Toxic | –
COC1=C(CO)[C@@H]2CC(=O)O[C@@H]3C[C@H]4CC[C@H](O)C(=O)[C@]4(C)[C@@H](C1=O)[C@@]32C | 102 | 137 | 135 | Non-Toxic | –
COC1=CC[C@@H]2C[C@H]3OC(=O)C=C4C(C)=C(OC)C(=O)[C@H]([C@@]2(C)C1=O)[C@]43C | 175 | 214 | 216 | Non-Toxic | Dose-dependent effect
COC1=CC[C@@H]2C[C@H]3OC(O)C[C@H]4C(C)=C(OC)C(=O)[C@H]([C@@]2(C)C1=O)[C@@]34C (stereo not given in full) | 170 | 174 | 178 | Non-Toxic | –
COC1=CC[C@@H]2C[C@H]3OC(=O)C=C4C(CO)=C(OC)C(=O)[C@H]([C@@]2(C)C1=O)[C@]43C | 132 | 140 | 141 | Non-Toxic | –
COC1=C(C)[C@]2(O)CC(=O)O[C@@H]3C[C@H]4CC[C@H](O)C(=O)[C@]4(C)[C@@H](C1=O)[C@@]32C | 162 | 166 | 170 | Non-Toxic | –
COC1=C(C)[C@@H]2CC(=O)O[C@@H]3C[C@H]4CC[C@H](O)C(=O)[C@]4(C)[C@@H](C1=O)[C@@]32C | 156 | 156 | 158 | Non-Toxic | –
COc1c(C=O)c(O)cc2c1C(=O)c1ccccc1C2=O [DAMNACANTHAL] | 203 | 218 | 219 | Non-Toxic | –
COC1=C(OC)C(=O)[C@@]2(C)[C@H](C1)C[C@H]1OC(=O)C[C@H]3C(C)=C(OC)C(=O)[C@H]2[C@@]13C | 112 | 136 | 134 | Non-Toxic | –
COC1=C(OC)C(=O)[C@@]2(C)[C@H](C1)C[C@H]1OC(=O)C[C@@]3(O)C(C)=C(OC)C(=O)[C@H]2[C@@]13C | 141 | 138 | 139 | Non-Toxic | –
COC1=CC(=O)[C@@H]2C[C@H]3OC(=O)C[C@H]4C(C)=C(OC)C(=O)[C@H]([C@@]2(C)C1=O)[C@@]34C | 117 | 155 | 155 | Non-Toxic | –
COC1=CC[C@@H]2C[C@H]3OC(=O)C[C@H]4C(C)=C(OC)C(=O)[C@H]([C@@]2(C)C1=O)[C@@]34C | 157 | 159 | 163 | Non-Toxic | –
COC1=C(OC)C(=O)[C@@]2(C)[C@H](C1)C[C@H]1OC(=O)C[C@H]3C(CO)=C(OC)C(=O)[C@H]2[C@@]13C | 139 | 126 | 127 | Non-Toxic | –
COC1=CC[C@@H]2C[C@H]3OC(=O)C[C@H]4C(C=O)=C(OC)C(=O)[C@H]([C@@]2(C)C1=O)[C@@]34C | 131 | 153 | 152 | Non-Toxic | –
